The record followed here is PubChem BioAssay (NCI).

Molecules are shown by their SMILES.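 Cells were grown in 96-well plates and exposed to each compound for 48 hours at five concentrations; endpoints were interpolated linearly between bracketing concentrations, or set to the highest concentration if not reached. GI50 marks 50% less growth. TGI denotes the concentration required for complete inhibition of growth.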

Common to all, as to test: growth of human tumour cells (NCI), 48 h
In assay [1] the test system is SF-295 CNS.
Assay [2] relates to KM12 colon.
Assay [3] deals with SF-539 CNS.
Assay [4] concerns NCI-H522 lung.
In assay [5] the test system is SK-MEL-28 melanoma.
The test system of assay [6] is NCI/ADR-RES ovarian.
Assay [7] concerns TK-10 renal.
Assay [8] has as its system OVCAR-3 ovarian.
For assay [9], the system named is SNB-75 CNS.
Assay [10] concerns IGROV1 ovarian.

`COc1ccc(/C=C/[N+](=O)[O-])cc1`: the TGI was 7.7 µM in [1]; 12 µM in assay [2]; 4.92 µM in assay [3]; 43.4 µM in assay [4]; 28.3 µM in assay [5]; > 100 µM in assay [6]. In addition, the TGI was 27 µM in [7], 8.62 µM in [8], > 100 µM in assay [9] and 11.3 µM in [10].
For `C#C[C@@]1(O)[C@@H](CO)O[C@@H](n2cc(F)c3c(N)ncnc32)[C@@H]1O`, the GI50 in [1] was 0.653 µM; in assay [2], 0.502 µM; in [3], 1.31 µM; in [4], 0.18 µM; in assay [5], 4.26 µM; in [6] it was 0.306 µM. The GI50 in assay [7] was 0.736 µM; in assay [8] it was 1.11 µM; in assay [9] it was 1.03 µM; in [10], 0.324 µM. Moreover, the TGI was 2.33 µM in [1]; 24.9 µM in assay [2]; 5.29 µM in assay [3]; 0.929 µM in assay [4]; > 100 µM in assay [5]; 11.3 µM in [6]. Besides, the TGI was 6.56 µM in [7], > 100 µM in assay [8], 2.32 µM in assay [9] and 1.42 µM in assay [10].
In the case of `N#CC1=C(N)Nc2nc3ccccc3n2C1c1ccccc1` (stereo not drawn), the TGI is > 100 µM in [1]; > 100 µM in [2]; > 100 µM in [3]; > 100 µM in assay [6]; 97.7 µM in assay [8]; > 100 µM in assay [10].
`C[C@H](CCC1=NCCN1)[C@H]1CC[C@H]2[C@@H]3CC[C@@H]4C[C@H](O)CC[C@]4(C)[C@H]3CC[C@]12C`: the TGI was 10.4 µM in [1]; > 47.4 µM in assay [2]; > 58.1 µM in [3]; 14.3 µM in assay [4]; 4.86 µM in [5]; 39.5 µM in assay [6]. Moreover, the TGI in assay [7] was 23.2 µM; in [8] it was 38.4 µM; in [9] it was 22 µM; in assay [10] it was 25.4 µM.
As for `O=C1OC2(c3ccc(O)cc3Oc3cc(O)ccc32)c2c1c(-c1ccccc1)c(-c1ccccc1)c(-c1ccccc1)c2-c1ccccc1`, the TGI in [1] turned out to be 49.5 µM; in [2], 32.3 µM; in assay [3] it was 40.8 µM; in assay [4], 32.6 µM; in assay [5], 44.6 µM; in [6], 98.2 µM. Moreover, the TGI is 59.6 µM in [7], > 100 µM in assay [8], 41 µM in assay [9] and 37.4 µM in assay [10].
For the compound `Nc1nncs1`, the TGI in [1] was > 5000 µM; in assay [2] it was > 5000 µM; in assay [3] it was > 5000 µM; in [4] it was 4690 µM; in assay [5], > 5000 µM; in [6], > 5000 µM. In addition, the TGI in [7] was > 5000 µM; in assay [8], > 5000 µM; in assay [9], > 3710 µM; in [10] it was > 4680 µM.
For `NC(=O)c1cc(C2OC(CO)C(O)C2O)nn1-c1ccc([N+](=O)[O-])cc1` (stereo not drawn), the TGI in [1], in [2], in assay [3], in assay [5], in assay [7] and in assay [8] was > 100 µM in each case. The TGI in [9] and in [10] was > 100 µM each time.
With `N#CC(C#N)=C1CCCCc2ccc([N+](=O)[O-])cc21`, the TGI is > 100 µM in assay [1]; > 100 µM in [2]; > 100 µM in [3]; 39.9 µM in assay [4]; > 100 µM in [5]; > 100 µM in assay [6]. Moreover, the TGI in assay [7], in assay [8], in assay [9] and in [10] was > 100 µM in each case.
In the case of `COc1cc2c3c(n(C4CCNCC4)c(=O)c2cc1OC)-c1cc2c(cc1C3=O)OCO2`, the GI50 is 1.11 µM in assay [2]; 0.296 µM in assay [4]; 0.823 µM in [6]; 1.8 µM in [7]; 1.2 µM in [8]. The TGI worked out at 2.53 µM in assay [2]; 2.99 µM in assay [4]; 4 µM in assay [6]; 3.65 µM in assay [7]; 2.6 µM in assay [8].
As to `O=C(O)Cc1[nH]cnc1C(=O)O`, the TGI in assay [1], in [2], in [3], in assay [4], in assay [5] and in [6] was > 100 µM in each case. Besides, the TGI in assay [7], in [8], in assay [9] and in assay [10] was > 100 µM in each case.
Turning to `CSc1ccc(-c2cc(-c3nc4ccccc4[nH]3)nc3[nH]c(-c4nc5ccccc5[nH]4)cc(=O)c23)cc1`, the TGI in assay [1], in assay [2], in [3], in [4], in assay [6] and in [7] was > 100 µM in each case. The TGI in assay [8], in [9] and in assay [10] was > 100 µM each time.
